Source: patent US11667651B2, “Aminopyridine derivatives as phosphatidylinositol phosphate kinase inhibitors” (HiberCell, Inc., priority 2017, dated 2023)

Target: T1, PIP4K2A (Homo sapiens, UniProt P48426)
T1 sequence (P48426 1-406): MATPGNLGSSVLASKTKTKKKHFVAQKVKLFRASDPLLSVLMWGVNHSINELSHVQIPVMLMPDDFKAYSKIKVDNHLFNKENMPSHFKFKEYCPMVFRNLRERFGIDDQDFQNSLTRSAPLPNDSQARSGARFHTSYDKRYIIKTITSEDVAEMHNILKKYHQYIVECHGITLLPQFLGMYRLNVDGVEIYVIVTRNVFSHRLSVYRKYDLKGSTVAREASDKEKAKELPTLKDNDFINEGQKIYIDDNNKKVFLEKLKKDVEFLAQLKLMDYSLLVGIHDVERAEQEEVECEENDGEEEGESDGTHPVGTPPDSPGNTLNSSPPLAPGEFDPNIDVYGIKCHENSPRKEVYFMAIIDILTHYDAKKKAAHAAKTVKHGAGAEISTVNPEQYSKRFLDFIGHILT
Assay: Kinase Assay PIP4K2 A (Table 2)
Type: biochemical
Parameters: 4 nM PIP4K2A (full length protein, SignalChem); purchased SignalChem
Details: compounds listed under IC50 bins
Procedure: Dilution series of the compounds were prepared in DMSO at 100 times the final assay concentration (n1=n0/3 in 10 points). The compounds were further diluted to three times the assay concentration in assay buffer (20 mM MOPS pH 7.2, 25 mM magnesium chloride, 0.005% Tween 20). 6 μL of the diluted compounds were added to a 384 well assay plate followed by 9 μL of a mix consisting of 4 nM PIP4K2A (full length protein, SignalChem) and 100 μM PI(5)P diC8 (Tebu-Bio). Enzyme and compounds were pre-incubated at room temperature for 15 minutes.
Then 3 μL of a solution containing 60 μM ATP (Promega) in assay buffer was added to the wells containing compound and enzyme and mixing was performed by pipetting several times. The reaction was incubated at room temperature for 1 h. Then 18 μL of ADP-Glo™ Reagent (Promega) was added to stop the kinase reaction and deplete the unconsumed ATP, mixing was performed by pipetting several times. The plate was incubated at room temperature for 40 minutes before addition of 36 μL of Kinase Detection Reagent (Promega) to convert ADP to ATP and introduce luciferase and luciferin to detect ATP. The reaction was incubated at room temperature for 40 minutes before the luminescence was measured in a in a Victor 3V 1420 multilabel counter (Perkin Elmer).
Percent inhibition of the compounds as compared to dimethyl sulfoxide treated control samples was calculated. Compound concentration versus percent inhibition were fitted to generate IC50 values.

IC50 [nM]	SMILES
100 to 1000	Cn1cnnc1-c1ccc(-c2ccc(Nc3cccnc3)nc2)cc1 [Example 65, 5-(4-(4-methyl-4H-1,2,4-triazol-3-yl)phenyl)-N-(pyridin-3-yl)pyridin-2-amine]
10 to 100	CN(C)C(=O)c1ccc(-c2ccc(Nc3cncc(N(C)S(C)(=O)=O)c3)nc2)cc1 [Example 24, N,N-dimethyl-4-(6-((5-(N-methylmethylsulfonamido)pyridin-3-yl)amino)pyridin-3-yl)benzamide]
> 1000	CN(C)C(=O)c1cc(F)c(-c2cnc(Nc3cncc(N4CCCC4=O)c3)cn2)cc1F [Example 22, 2,5-difluoro-N,N-dimethyl-4-(5-((5-(2-oxopyrrolidin-1-yl)pyridin-3-yl)amino)pyrazin-2-yl)benzamide]
1 to 10	CN(C)C(=O)c1ccc(-c2ccc(Nc3cncc(N4CCN(Cc5cccnc5)C4=O)c3)nc2)cc1 [Example 76, N,N-dimethyl-4-(6-((5-(2-oxo-3-(pyridin-3-ylmethyl)imidazolidin-1-yl)pyridin-3-yl)amino)pyridin-3-yl)benzamide]
100 to 1000	CN(C)C(=O)c1ccc(-c2cnc(Nc3cccnc3)nc2)cc1 [Example 264, N,N-dimethyl-4-(2-(pyridin-3-ylamino)pyrimidin-5-yl)benzamide]
1 to 10	CN(C)C(=O)c1ccc(-c2cnc(Nc3cncc(N4CCN(Cc5ccccc5)C4=O)c3)cn2)cc1 [Example 23, 4-(5-((5-(3-benzyl-2-oxoimidazolidin-1-yl)pyridin-3-yl)amino)pyrazin-2-yl)-N,N-dimethylbenzamide]
> 1000	CNC(=O)c1ccc(-c2ccc(Nc3cncc(N4CCCC4=O)c3)nc2)cc1 [Example 219, N-methyl-4-(6-((5-(2-oxopyrrolidin-1-yl)pyridin-3-yl)amino)pyridin-3-yl)benzamide]
> 1000	CN(C)C(=O)c1ccc(-c2ccc(Nc3ccc(=O)n(Cc4ccccc4)c3)nc2)cc1 [Example 54, 4-(6-((1-benzyl-6-oxo-1,6-dihydropyridin-3-yl)amino)pyridin-3-yl)-N,N-dimethylbenzamide]
100 to 1000	CCN(C)C(=O)c1ccc(-c2ccc(Nc3cccnc3)nc2)cc1 [Example 68, N-ethyl-N-methyl-4-(6-(pyridin-3-ylamino)pyridin-3-yl)benzamide]
100 to 1000	CN(C)S(=O)(=O)c1ccc(-c2ccc(Nc3cccnc3)nc2)cc1 [Example 63, N,N-dimethyl-4-(6-(pyridin-3-ylamino)pyridin-3-yl)benzenesulfonamide]
100 to 1000	CC(C)[C@@H]1NC(=O)N(c2cncc(Nc3ccc(-c4ccc(C(=O)N(C)C)cc4)cn3)c2)C1=O [Example 57, (S)-4-(6-((5-(4-isopropyl-2,5-dioxoimidazolidin-1-yl)pyridin-3-yl)amino)pyridin-3-yl)-N,N-dimethylbenzamide]
10 to 100	CC(=O)Nc1cncc(Nc2ccc(-c3ccc(C(=O)N(C)C)cc3)cn2)c1 [Example 31, 4-(6-((5-acetamidopyridin-3-yl)amino)pyridin-3-yl)-N,N-dimethylbenzamide]
> 1000	CC(=O)N(C)c1ccc(-c2ccc(Nc3cccnc3)nc2)cc1 [Example 64, N-methyl-N-(4-(6-(pyridin-3-ylamino)pyridin-3-yl)phenyl)acetamide]
> 1000	CN(C)C(=O)[C@H]1CC[C@H](c2ccc(Nc3cccnc3)nc2)CC1 [Example 7, (r,4r)-N,N-dimethyl-4-(6-(pyridin-3-ylamino)pyridin-3-yl)cyclohexane-1-carboxamide]
> 1000	CN(C)C(=O)c1ccc(-c2ccc(Nc3cnccn3)nc2)cc1 [Example 36, N,N-dimethyl-4-(6-(pyrazin-2-ylamino)pyridin-3-yl)benzamide]
10 to 100	CN(C)C(=O)c1ccc(-c2ccc(Nc3cncc(N4CCCC4=O)c3)nc2)cc1 [Example 38, N,N-dimethyl-4-(6-((5-(2-oxopyrrolidin-1-yl)pyridin-3-yl)amino)pyridin-3-yl)benzamide]
10 to 100	CN(C)C(=O)c1ccc(-c2ccc(Nc3cncc(N4Cc5ccccc5C4=O)c3)nc2)cc1 [Example 53, N,N-dimethyl-4-(6-((5-(1-oxoisoindolin-2-yl)pyridin-3-yl)amino)pyridin-3-yl)benzamide]

IC50 [nM]	SMILES
100 to 1000	CC(C)N(c1cncc(Nc2ccc(-c3ccc(C(=O)N(C)C)cc3)cn2)c1)S(C)(=O)=O [Example 27, 4-(6-((5-(N-isopropylmethylsulfonamido)pyridin-3-yl)amino)pyridin-3-yl)-N,N-dimethylbenzamide]
100 to 1000	CN(C)C(=O)c1ccc(-c2ccc(Nc3cncc(CCN4CCOCC4)c3)nc2)cc1 [Example 48, N,N-dimethyl-4-(6-((5-(2-morpholinoethyl)pyridin-3-yl)amino)pyridin-3-yl)benzamide]
10 to 100	CN(C)C(=O)c1ccc(-c2ccc(Nc3cncc(N4CCN(CC5CC5)C4=O)c3)nc2)cc1 [Example 79, 4-(6-((5-(3-(cyclopropylmethyl)-2-oxoimidazolidin-1-yl)pyridin-3-yl)amino)pyridin-3-yl)-N,N-dimethylbenzamide]
1 to 10	CN(C)C(=O)c1ccc(-c2ccc(Nc3cncc(N4CCN(Cc5cscn5)C4=O)c3)nc2)cc1 [Example 78, N,N-dimethyl-4-(6-((5-(2-oxo-3-(thiazol-4-ylmethyl)imidazolidin-1-yl)pyridin-3-yl)amino)pyridin-3-yl)benzamide]
100 to 1000	O=C1CCCN1c1ccc(-c2ccc(Nc3cccnc3)nc2)cc1 [Example 82, 1-(4-(6-(pyridin-3-ylamino)pyridin-3-yl)phenyl)pyrrolidin-2-one]
10 to 100	CN(C)C(=O)c1ccc(-c2ccc(Nc3cnc4ccn(S(C)(=O)=O)c4c3)nc2)cc1 [Example 42, N,N-dimethyl-4-(6-((1-(methylsulfonyl)-1H-pyrrolo[3,2-b]pyridin-6-yl)amino)pyridin-3-yl)benzamide]
100 to 1000	CN(C)C(=O)c1ccc(-c2ccc(Nc3cncc(CC(=O)NCc4cccnc4)c3)nc2)cc1 [Example 56, N,N-dimethyl-4-(6-((5-(2-oxo-2-((pyridin-3-ylmethyl)amino)ethyl)pyridin-3-yl)amino)pyridin-3-yl)benzamide]
> 1000	CC(=O)Nc1ccc(-c2ccc(C(=O)N(C)C)cc2)cn1 [Example 220, 4-(6-acetamidopyridin-3-yl)-N,N-dimethylbenzamide]
> 1000	Cc1ncc(Nc2ccc(-c3ccc(C(=O)N(C)C)cc3)cn2)cn1 [Example 33, N,N-dimethyl-4-(6-((2-methylpyrimidin-5-yl)amino)pyridin-3-yl)benzamide]
> 1000	CN(C)C(=O)C#Cc1ccc(Nc2cccnc2)nc1 [Example 4, N,N-dimethyl-3-(6-(pyridin-3-ylamino)pyridin-3-yl)propiolamide]
100 to 1000	CN(C)C(=O)c1ccc(-c2ccc(Nc3cccnc3)nc2)cc1 [Example 1, N,N-dimethyl-4-(6-(pyridin-3-ylamino)pyridin-3-yl)benzamide]
100 to 1000	CN(C)C(=O)c1ccc(-c2cnc(Nc3cncc(N4CCCC4=O)c3)cn2)cc1 [Example 19, N,N-dimethyl-4-(5-((5-(2-oxopyrrolidin-1-yl)pyridin-3-yl)amino)pyrazin-2-yl)benzamide]
10 to 100	CN(C)C(=O)c1ccc(-c2ccc(Nc3cncc(N4CCCC4=O)c3)nc2)c(F)c1 [Example 13, 3-fluoro-N,N-dimethyl-4-(6-((5-(2-oxopyrrolidin-1-yl)pyridin-3-yl)amino)pyridin-3-yl)benzamide]
> 1000	Cc1cc(-c2ccc(Nc3cccnc3)nc2)ccc1C(=O)N(C)C [Example 10, N,N,2-trimethyl-4-(6-(pyridin-3-ylamino)pyridin-3-yl)benzamide]
100 to 1000	CN(C)C(=O)c1ccc(-c2ccc(Nc3cncc(N4CCOCC4=O)c3)nc2)cc1 [Example 47, N,N-dimethyl-4-(6-((5-(3-oxomorpholino)pyridin-3-yl)amino)pyridin-3-yl)benzamide]
> 1000	CN(C)C(=O)c1ccc(-c2ccc(Nc3cc[nH]c(=O)c3)nc2)cc1 [Example 221, N,N-dimethyl-4-(6-((2-oxo-1,2-dihydropyridin-4-yl)amino)pyridin-3-yl)benzamide]
1 to 10	CC(=O)N1CCOc2ncc(Nc3ccc(-c4ccc(C(=O)N(C)C)cc4)cn3)cc21 [Example 43, 4-(6-((1-acetyl-2,3-dihydro-1H-pyrido[2,3-b][1,4]oxazin-7-yl)amino)pyridin-3-yl)-N,N-dimethylbenzamide]
